Literature values as cited in US12133876B2, “TryNOVID boosts immune system against viruses and variants” (priority 2022, dated 2024).

Tests used:
[1] = tested on: SARS-COV-2; conditions: binding to SARS-COV-2 (Kulkarni et al., 2020)
[2] = tested on: COVID-19; conditions: high dose; patients requiring hospitalization due to proven COVID-19; plus best-available therapy versus best-available therapy
[3] = tested on: enveloped viruses; conditions: Coronavirus, HIV, Measles virus, Herpes simplex virus type 1 and 2, Influenza virus and other listed enveloped viruses (Lieberman et al., 2006)

SMILES	binding affinities in molecular docking [1]	further results
C=CC(C)=CCC=C(C)C [ocimene]	good binding affinities	–
C=C1CC[C@H](O)C/C1=C/C=C1\CCC[C@]2(C)[C@@H]([C@H](C)CCCC(C)(C)O)CC[C@@H]12 [calcifediol, 25-hydroxyvitamin D]	–	need for ICU treatment [2]: significantly reduced
C=C1C2CCC(C2)C1(C)C (stereo not shown) [camphene]	good binding affinities	–
CC(C)=C1CC[C@@H](C)CC1=O [pulegone]	good binding affinities	–
CCCCCCCCCCCC(=O)OCC(O)CO (stereo not shown) [Monolaurin, glycerol monolaurate]	–	inactivation of enveloped viruses [3]: able to inactivate
Cc1ccc(C(C)C)c(O)c1 [thymol]	good binding affinities	–
CC1CCC(C(C)C)C(O)C1 (stereo not shown) [menthol]	good binding affinities	–
